Measurements published in patent publication US20210113617A1, “METHODS AND COMPOSITIONS FOR TH9 CELL MEDIATED CANCER TREATMENT” (Wake Forest University Health Sciences, priority 2018, published 2021).

Experiments:
OT-II-Th17 cells = test: QNZ on restimulated OT-II-Th17 cells (CFSE dilution); type: cell-based, mice; settings: restimulated with antigen-pulsed APCs for 2 days in presence of QNZ
Description: (§1) CFSE labeling and cytotoxicity assay. In some experiments, Th cells were incubated for 5 minutes at 37° C. with 1 μM CFSE in PBS, and then washed extensively. We measured proliferation of T cells by the relative CFSE dilution method after stimulation or transfer into tumor-bearing mice. In the cytotoxicity assay, B16-OVA target cells or B16 non-target cells for OT-II T cells were labeled with 5 μM CFSE. B16-OVA target cells or B16 non-target control cells were incubated alone in triplicate with the OT-II T cells at a 1:10 effector-to-target ratio. For TRP-1 T cells, B16 target cells or MC38 non-target control cells were used. After 18 hours, CFSE^+ tumor cells from each target and control well were stained using FVD and analyzed by FACS. FVD^+ tumor cells were considered as dead cells. The percent specific lysis was calculated as (FVD^+ target−FVD^+ control)×100%.
(§2) Moreover, we further confirmed the increased proliferative capacity of Th9 cells by CFSE-dilution assay and by calculating the cell yields after the first-round activation and the subsequent reactivation (FIGS. 5G-5H).

OT-II-Th9 cells = test: QNZ on restimulated OT-II-Th9 cells (CFSE dilution, cell yield, Annexin V/PI); type: cell-based, mice
Description: as §1, §2

## Nc1ccc2ncnc(NCCc3ccc(Oc4ccccc4)cc3)c2c1 [QNZ]
OT-II-Th17 cells
  proliferation of Th17: minimal effect
OT-II-Th9 cells; restimulated with OT-II peptide-pulsed APCs in presence of QNZ for 48 hours
  Th9 hyperproliferation: significantly arrested Th9 hyperproliferation
OT-II-Th9 cells; restimulated with antigen-pulsed APCs for 2 days in presence of QNZ
  Th9 cell apoptosis: did not induce Th9 cell apoptosis
